In patent US12662449B2 (NACUITY PHARMACEUTICALS, INC., priority 2017, dated 2026):
Blank lines part the entries; values can stand above or below the compound they belong to.

What was measured:
Format in all cases: physicochemical
[1] = Solubilization of NACA in ORA-SWEET and water
Protocol: A study was conducted to determine the solubilization of NACA in ORA-SWEET® (Ora-Sweet is a commercially available syrup vehicle containing water, sucrose, glycerin, sorbitol, flavoring, buffering agents (citric acid and/or sodium phosphate), methyl paraben and potassium sorbate, pH 4.2 manufactured by Paddock Laboratories, Inc., Minneapolis, Minnesota). HPLC equipment and glass containers and stirrers were utilized.
Therefore, NACA was dissolved in 50 mL water followed by 50 mL Ora-Sweet, shaken to dissolve in an opaque plastic bottle with closure and provided to subject for self-administration (oral ingestion).

[2] = Micronization of NACA and stability of the 1% NACA formulation
Source text: The relation between micronization conditions and an initial increase of the degradation product diNACA was further investigated. […] Therefore, the zirconium oxide milling process was further investigated and successfully optimized regarding particle size distribution, milling parameters and impurity profile for the 1% NACA formulation. […] The particle size distribution by laser diffraction analysis was ×10=1.3 μm, ×50=4.7 μm and ×90=12.3 μm. Batches were prepared and found to be stable for up to 4 weeks at ambient temperature.

[3] = Oxidation of NACA on exposure to air; conditions: exposed to air
Source text: These efforts to increase purity focused on the major impurities as measured by HPLC, namely, diNACA, DTT and cyclic DTT. […] Ethanol and methyl t-butyl Ether (MTBE) used in the reduction and solvent-exchange were degassed in an effort to reduce diNACA.

[4] = Stability of NACA/excipient mixtures (excipient screening); conditions: NACA/excipient mixtures after 4 weeks at 40° C./75% RH
Protocol: NACA Tablets, 250 mg, are packaged in high density polyethylene (HDPE) bottles with foil induction seal and a white polyproplyene screw-top closure. Excipients used for the formulation meet compendial standards. Lactose functions as a filler. Microcrystalline cellulose functions as a filler. Croscarmellose Sodium functions as a disintegrant. Stearic Acid functions as a lubricant. Excipients were screened by assessing the stability of NACA in mixtures with each excipient.

[5] = Stability and dissociation of NACA/urea co-crystal (secondary co-crystal screen)
Protocol: NACA/Urea Co-crystal. A primary co-crystal screen was conducted where 28 potential co-crystal formers (CCFs) were screened (Table 18) in 6 solvent systems under 2 process relevant crystallization conditions, namely, thermal maturation and evaporation. A NACA/urea co-crystal was identified (FIG. 15). […] NMR analysis confirmed an approximate stoichiometric content of urea contained within the material. The material appeared to be stable under ambient conditions and elevated temperature (80° C.) but unstable when stored at high humidity for prolonged periods, showing degradation to the diNACA. […] An additional DSC experiment with post-XRPD analysis confirmed that the exothermic event observed during the DSC cooling cycle is a recrystallization to NACA.

Stirring time required to achieve a solution ([1]; NACA at 80 mg/ml in ORA-SWEET): 20 to 30 min
Dissolution in water ([1]; water, shaking for 30 seconds): readily dissolved
Oxidation on exposure to air [3]: Oxidation of NACA occurs
Structure (SMILES): CC(=O)N[C@@H](CS)C(N)=O
Change of degradation product diNACA on micronization ([2]; stainless steel grinding jars): time dependent increase of the degradation product diNACA
Change of degradation product diNACA on micronization ([2]; zirconium oxide jars and balls): did not lead to an initial increase of the degradation product diNACA

% Assay [4]: 95.3%
Structure (SMILES): CC(=O)N[C@H](CS)C(N)=O

Stability under ambient conditions and elevated temperature ([5]; ambient conditions and 80° C.): stable
Dissociation in water and high water activity mixtures ([5]; deionized water and solvent/water mixtures with a high water activity): found to dissociate
Dissociation in organic solvents and low water activity mixtures ([5]; organic solvents and solvent/water mixtures with low water activity): No signs of dissociation
Stability at high humidity ([5]; stored at high humidity for prolonged periods, degradation to diNACA): unstable
Structure (SMILES): CC(=O)N[C@@H](CS)C(N)=O.NC(N)=O [NACA/urea pattern 1 material]
